concentration, inhibition in vivo and inhibition data for 1 compound are collected here from ChEMBL document CHEMBL1147776, “1-[4-(1H-Benzoimidazol-2-yl)-phenyl]-3-[4-(1H-benzoimidazol-2-yl)-phenyl]-urea derivatives as small molecule heparanase inhibitors” (Bioorg Med Chem Lett, 2006).

The structures appear in SMILES notation.

The nature of data set [1]: Plasma concentration in mice after 1 hour of ip administration. The class given is ADME, organism-based. As to conditions: mouse.
A further data set concerns Mus musculus. In words: Inhibition of lung metastasis in C57 mice injected with B16-BL6 melanoma cells at 30 mg/kg, ip. The class given is functional. As to conditions: route intraperitoneal.
Another data set deals with B16. Put plainly: Inhibition of proliferation on B16-BL6 melanoma cells at 100 uM. It counts as functional. As to conditions: Mus musculus.
A short description of data set [2]: Plasma concentration in mice after 4 hours of ip administration. It counts as ADME, organism-based. Conditions: mouse.

In data set [1], `O=C(Nc1ccc(-c2nc3ccccc3[nH]2)cc1)Nc1ccc(-c2nc3ccccc3[nH]2)cc1` registered a concentration at 1 h of 31 µM. This compound also gave an inhibition in vivo at 30 mg/kg in the data set on Mus musculus of 50%. The compound also gave an inhibition at 100 µM with B16 below 50%. Moreover, in data set [2], the concentration at 4 h turned out to be 23 µM.
